In patent US20240082285A1 (priority 2022, published 2024):

What was measured:
[1] = test system: MA104 cells; assay: Toxicity of Chebulinic acid to MA104 cells by CCK8 method; assay type: cell-based; conditions: 48 h
Protocol: According to the common drug concentration range of Chebulinic acid, the cytotoxicity pre-experiment is performed between 1 μM and 25 μM in this experiment. The MA104 cells at the logarithmic growth stage are observed under a microscope. The cellular morphology is uniform and full with clear edges, and when the number reaches 80%, digestion, centrifugation and re-suspension are conducted. After further dilution of the suspension, […] is taken on a blood cell counting plate to count and calculate the required cell volume. Then, the cells are laid in a 96-well plate, 100 µL of cell suspension is added to each well, and the cell density is 8×10^4 cells/mL. When the cells adhere to the wall to form a single layer, the drug group is administered, and the normal group is added with an equal volume of DMEM (without serum). After incubation for 48 h, the cytotoxicity of Chebulinic acid is detected by CCK8 reagent. 1/10 volume of CCK8 solution is added to each well and incubated in an incubator. After 90 min, the absorbance is detected and recorded under the condition of oscillation for 10 s and at 450 nm wavelength. The formula for the relative survival rate of the cells is:
{(Axpenmentai group−Ablank)/(Acontrol group−Ablaimk)×100%}.

[2] = test system: VP6 gene; assay: Gene expression of structural protein VP6 in RV-infected MA104 cells, real-time quantitative PCR; assay type: cell-based, Rotavirus; conditions: 1 μM, 5 M and 10 μM, compared with RV group, most significant at 5 μM
Text: The Experimental Method is as Follows: • (1) Extraction and quantification of total RNA; • (2) Primer sequence design; • (3) Reverse transcription reaction; • (4) SYBR Green I fluorescent labeling is used for real-time quantitative PCR detection of expression of VP6 gene.

[3] = test system: Wa strain RV; assay: Effect against RV synthesis (drug after virus), CCK-8 viral inhibition rate; assay type: cell-based, Rotavirus; conditions: 48 h; for effect of synthesis inhibition on RV: MA104-2 cells, 100 TCID50 virus
Protocol: 100 TCID50 virus solution (the virus acts with 10 μg/mL pancreatin for 30 min) is added to the 96-well culture plate of the MA104-2 cells that grow to the single layer, and each well contains 100 μL. The cells have been washed twice with PBS. Normal cell control is set, and added with an equal volume of DMEM. Incubation is conducted at 37° C. and 5% CO2 for 2 h. Then, the virus solution is sucked out and added into different concentrations of drug solution and ribavirin respectively, and each well contains 100 μL. Virus control is set. Only the cell maintenance solution is added, and each well contains 100 μL. Incubation is conducted at 37° C. and 5% CO2 for continuous observation. After continuous culture for 48 h, CCK-8 kit is used for detection. 1/10 volume of CCK-8 solution is added to each well, and incubated in the incubator. After 90 min, the absorbance is detected and recorded at 450 nm wavelength. The viral inhibition rate of the drug is calculated, and the experiment is repeated for 3 times. The formula of the viral inhibition rate is:
(§1) {(Adrug group−Avirus group)/(Anormal group−Avirus group)×100%}.

[4] = test system: Wa strain RV; assay: Direct killing effect on RV (drug mixed with virus), CCK-8 viral inhibition rate; assay type: cell-based, Rotavirus; conditions: MA104 cells, 100 TCID50 virus, 48 h; inhibition rate lower than ribavirin group
Protocol: The drug is mixed with 100 TCID50 virus solution (the virus acts with 10 μg/mL pancreatin for 30 min) at an equal volume for 2 h. After the cells are washed twice with PBS, the cells are added to the 96-well culture plate of the MA104 cells that grow to the single layer. In the positive control group, the same operation as above is conducted for ribavirin and RV, and only an equal volume of DMEM (without serum) is added to the normal cell control group and the viral control group. Incubation is conducted at 37° C. and 5% CO2 for 2 h. Then, the mixed solution is sucked out, the cell maintenance solution is added, and each well contains 100 μL. Incubation is conducted at 37° C. and 5% CO2 for continuous observation. After culture for 48 h, CCK-8 kit is used for detection. 1/10 volume of CCK-8 solution is added to each well, and incubated in the incubator. After 90 min, the absorbance is detected and recorded at 450 nm wavelength. The viral inhibition rate of the drug is calculated, and the experiment is repeated for 3 times. The formula of the viral inhibition rate is:
as §1

[5] = test system: Wa strain RV; assay: Effect against RV adsorption (drug before virus), CCK-8 viral inhibition rate; assay type: cell-based, Rotavirus; conditions: MA104 cells, 1 μM, 5 μM and 10 μM, compared with ribavirin group
Protocol: The 96-well culture plate of the MA104 cells that grow to the single layer is added with the drug solution. Each drug solution is repeated with 6 wells, and each well contains 100 μL. An equal volume of ribavirin is added to the positive control group, and only an equal volume of DMEM culture solution (without serum) is added to the normal cell control group and the viral control group. Incubation is conducted at 37° C. and 5% CO2 for 2 h. The drug solution is sucked out. Except the normal cell control group, 100 TCID50 virus is added (the virus acts with 10 μg/mL pancreatin at 37° C. for 30 min), and each well contains 100 μL. Incubation is conducted at 37° C. and 5% CO2 for 2 h. The virus is sucked out, the cell maintenance solution is added, and each well contains 200 μL. Incubation is conducted at 37° C. and 5% CO2 for continuous observation. After culture for 48 h, CCK-8 kit is used for detection. 1/10 volume of CCK-8 solution is added to each well, and incubated in the incubator. After 90 min, the absorbance is detected and recorded at 450 nm wavelength. The experiment is repeated for 3 times. The formula of the viral inhibition rate is:
as §1

[6] = Rotavirus, read-out: anti-RV inhibition rate (synthesis)

For `O=C(O)C[C@@H]1C(=O)O[C@H]2[C@H](OC(=O)c3cc(O)c(O)c(O)c3)[C@@H](OC(=O)c3cc(O)c(O)c4c3[C@H]1[C@H](O)C(=O)O4)[C@H](OC(=O)c1cc(O)c(O)c(O)c1)O[C@@H]2COC(=O)c1cc(O)c(O)c(O)c1` [Chebulinic acid], the “drug toxicity to the cells” value ([1]; 1 μM to 10 μM) was “no drug toxicity”, the average survival rate ([1]; Chebulinic acid 1 μM to 10 μM) was “above 95%” and the VP6 expression [2] was “significantly decreased”. The “effect of synthesis inhibition on RV” value [3] was “obvious effect of synthesis inhibition”, the inhibition at 1 µM [3, 6] was 80% and the inhibition at 5 µM [3, 6] was 75.3%. The inhibition at 10 µM [3, 6] was 61.9%, the “direct killing effect on RV” value [4] was “no obvious direct killing effect” and the anti-RV adsorption effect [5] was “no obvious anti-RV adsorption effect”.

For `NC(=O)c1ncn([C@@H]2O[C@H](CO)[C@@H](O)[C@H]2O)n1` [ribavirin, reference compound], the “effect of synthesis inhibition on RV” value [3] was “obvious effect of synthesis inhibition”.
